This passage reports IC50 results from patent US9725445B2, “Cycloalkyl nitrile pyrazolo pyridones as Janus kinase inhibitors” (Merck Sharp & Dohme Corp., priority 2013, dated 2017).

In one test the target is JAK1 (Homo sapiens (Human), UniProt P23458). In words: Jak biochemical HTRF assay, JAK1. The note with it: HTRF biochemical assay, recombinant GST-tagged catalytic domain; read-out: JAK1 IC50. (In general: In TR-FRET formats the signal depends on donor and acceptor labels being close together.)
Chain of JAK1 (P23458 875-1153): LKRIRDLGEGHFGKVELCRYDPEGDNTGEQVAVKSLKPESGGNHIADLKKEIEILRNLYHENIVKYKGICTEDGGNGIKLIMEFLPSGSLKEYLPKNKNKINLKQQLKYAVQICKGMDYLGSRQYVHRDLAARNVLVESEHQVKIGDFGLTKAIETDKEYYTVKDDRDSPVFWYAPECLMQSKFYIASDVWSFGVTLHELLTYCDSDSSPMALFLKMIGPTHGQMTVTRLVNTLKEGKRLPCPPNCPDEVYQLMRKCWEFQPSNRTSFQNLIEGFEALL
The target in another test is JAK2 (Homo sapiens (Human), UniProt O60674). Nature of the test: Jak biochemical HTRF assay, JAK2. The note with it: HTRF biochemical assay, recombinant GST-tagged catalytic domain; read-out: JAK2 IC50.
Chain of JAK2 (O60674 849-1124): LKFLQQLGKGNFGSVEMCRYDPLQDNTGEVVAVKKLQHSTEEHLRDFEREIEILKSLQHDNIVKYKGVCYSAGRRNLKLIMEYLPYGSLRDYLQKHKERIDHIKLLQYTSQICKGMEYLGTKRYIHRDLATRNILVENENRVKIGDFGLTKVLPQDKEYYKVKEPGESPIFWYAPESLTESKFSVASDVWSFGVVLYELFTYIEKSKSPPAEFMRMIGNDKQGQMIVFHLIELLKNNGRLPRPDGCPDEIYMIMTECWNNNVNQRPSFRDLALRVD

`N#C[C@H]1CCCC[C@@H]1n1nc(Nc2ccc3c(c2)CNCC3)c2c(=O)[nH]ccc21` [Example 3-157, (1S,2S)-2-[4-oxo-3-(1,2,3,4-tetrahydroisoquinolin-7-ylamino)-4,5-dihydro-1H-pyrazolo[4,3-c]pyridin-1-yl]cyclohexanecarbonitrile]: the IC50 (in general, the concentration that inhibits the measured activity by half) at JAK1 came out at 0.45 nM; on JAK2, 0.88 nM.
`N#C[C@H]1CCCC[C@@H]1n1nc(Nc2ccc3c(c2)CN(C(=O)c2cnc(N4CCCCC4)cn2)C3)c2c(=O)[nH]ccc21` [Example 3-158, (1S,2S)-2-[4-oxo-3-({2-[(5-piperidin-1-ylpyrazin-2-yl)carbonyl]-2,3-dihydro-1H-isoindol-5-yl}amino)-4,5-dihydro-1H-pyrazolo[4,3-c]pyridin-1-yl]cyclohexanecarbonitrile]: the IC50 on JAK1 turned out to be 0.98 nM; at JAK2 it was 1.5 nM.
With `COCC(C)(C)CN1Cc2cc(Nc3nn([C@H]4CCCC[C@@H]4C#N)c4cc[nH]c(=O)c34)ccc2S1(=O)=O` [Example 3-159, (1S,2S)-2-(3-((2-(3-methoxy-2,2-dimethylpropyl)-1,1-dioxido-2,3-dihydrobenzo[d]isothiazol-5-yl)amino)-4-oxo-4,5-dihydro-1H-pyrazolo[4,3-c]pyridin-1-yl)cyclohexanecarbonitrile], the IC50 on JAK1 is 0.059 nM; on JAK2, 0.44 nM.
On the same counts, the results for `COCC(C)(C)N1Cc2cc(Nc3nn([C@H]4CCCC[C@@H]4C#N)c4cc[nH]c(=O)c34)ccc2S1(=O)=O` [Example 3-160, (1S,2S)-2-(3-{[2-(2-methoxy-1,1-dimethylethyl)-1,1-dioxido-2,3-dihydro-1,2-benzisothiazol-5-yl]amino}-4-oxo-4,5-dihydro-1H-pyrazolo[4,3-c]pyridin-1-yl)cyclohexanecarbonitrile] are 0.049 nM and 0.19 nM.
In the same order, the values of `COCCC(C)(C)N1Cc2cc(Nc3nn([C@H]4CCCC[C@@H]4C#N)c4cc[nH]c(=O)c34)ccc2S1(=O)=O` [Example 3-161, (1S,2S)-2-(3-{[2-(3-methoxy-1,1-dimethylpropyl)-1,1-dioxido-2,3-dihydro-1,2-benzisothiazol-5-yl]amino}-4-oxo-4,5-dihydro-1H-pyrazolo[4,3-c]pyridin-1-yl)cyclohexanecarbonitrile] are 0.067 nM and 0.15 nM.
In the same order, the values of `N#C[C@H]1CCCC[C@@H]1n1nc(Nc2ccc3c(c2)CN(CC2CCCC2)C3)c2c(=O)[nH]ccc21` [Example 3-162, (1S,2S)-2-(3-{[2-(cyclopentylmethyl)-2,3-dihydro-1H-isoindol-5-yl]amino}-4-oxo-4,5-dihydro-1H-pyrazolo[4,3-c]pyridin-1-yl)cyclohexanecarbonitrile] are 0.33 nM and 0.92 nM.
In the case of `CC(C)(C)OC(=O)CN1Cc2ccc(Nc3nn([C@H]4CCCC[C@@H]4C#N)c4cc[nH]c(=O)c34)cc2C1` [Example 3-164, tert-butyl [5-({1-[(1S,2S)-2-cyanocyclohexyl]-4-oxo-4,5-dihydro-1H-pyrazolo[4,3-c]pyridin-3-yl}amino)-1,3-dihydro-2H-isoindol-2-yl]acetate], the half-inhibitory concentration (IC50) on JAK1 came out at 0.33 nM; at JAK2, 2.5 nM.
In the same order, the values of `CC1(C)C(=O)c2cc(Nc3nn([C@H]4CCCC[C@@H]4C#N)c4cc[nH]c(=O)c34)ccc2S1(=O)=O` [Example 3-171, (1S,2S)-2-{3-[(2,2-dimethyl-1,1-dioxido-3-oxo-2,3-dihydro-1-benzothiophen-5-yl)amino]-4-oxo-4,5-dihydro-1H-pyrazolo[4,3-c]pyridin-1-yl}cyclohexanecarbonitrile] are 1.16 nM and 5.5 nM.
In the case of `CN(C)[C@@H]1CC[C@H](n2nc(Nc3ccc(Cl)c(F)c3)c3c(=O)[nH]ccc32)[C@@H](C#N)C1` [Example 5-1, (1S,2S,5R)-2-(3-((4-Chloro-3-fluorophenyl)amino)-4-oxo-4,5-dihydro-1H-pyrazolo[4,3-c]pyridin-1-yl)-5-(dimethylamino)cyclohexanecarbonitrile], the results for the IC50 at JAK1 and at JAK2 were 1.5 nM and 19 nM, respectively.
